In the OligoGym collection:
These antisense oligonucleotides have a phosphorothioate backbone; sugars and methylation of C are not fully specified.

Assays:
Conditions in all cases: ASO
TERF1 = target: TERF1
PTPN6 = target: PTPN6
RHOB = target: RHOB
XIAP = target: XIAP
Note: test concentration or dose not given here.

Sequence: AAACACAATCAGTCTTCGCT
- remaining target (mRNA or protein) (fraction of control) (TERF1): 0.93

Sequence: AACCACCCACGGGACAGCAT
- remaining target (mRNA or protein) (fraction of control) (PTPN6): 0.47

Sequence: AACTCGTCCTTACTGAAC
- remaining target (mRNA or protein) (fraction of control) (RHOB): 0.7

Sequence: AAGCACATGAGAATGACG
- remaining target (mRNA or protein) (fraction of control) (RHOB): ≥ 1

Sequence: AAGCTTTTACAAACACAATC
- remaining target (mRNA or protein) (fraction of control) (TERF1): ≥ 1

Sequence: AATCAGTCTTCGCTGTCTGA
- remaining target (mRNA or protein) (fraction of control) (TERF1): ≥ 1

Sequence: ACAAACACAATCAGTCTTCG
- remaining target (mRNA or protein) (fraction of control) (TERF1): ≥ 1

Sequence: ACAATCAGTCTTCGCTGTCT
- remaining target (mRNA or protein) (fraction of control) (TERF1): 0.57

Sequence: ACACAATCAGTCTTCGCTGT
- remaining target (mRNA or protein) (fraction of control) (TERF1): 0.64

Sequence: ACCCACGGGACAGCATCTCT
- remaining target (mRNA or protein) (fraction of control) (PTPN6): ≥ 1

Sequence: ACCTCGCGCACGCCTTCC
- remaining target (mRNA or protein) (fraction of control) (RHOB): ≥ 1

Sequence: ACGGGACAGCATCTCTCTGT
- remaining target (mRNA or protein) (fraction of control) (PTPN6): 0.65

Sequence: ACGGGTTCCTGCTTCATG
- remaining target (mRNA or protein) (fraction of control) (RHOB): ≥ 1

Sequence: ACTGAACACGATCAGCAG
- remaining target (mRNA or protein) (fraction of control) (RHOB): ≥ 1

Sequence: ACTGGCAAGCTGTTAGACTG
- remaining target (mRNA or protein) (fraction of control) (TERF1): 0.49

Sequence: AGACCTCGCGCACGCCTT
- remaining target (mRNA or protein) (fraction of control) (RHOB): 0.84

Sequence: AGCACCTTGCAGCAGTTG
- remaining target (mRNA or protein) (fraction of control) (RHOB): ≥ 1

Sequence: AGCAGGGTCTCTGCATCCAG
- remaining target (mRNA or protein) (fraction of control) (PTPN6): ≥ 1

Sequence: AGGCTCTCACGCACAAGAAA
- remaining target (mRNA or protein) (fraction of control) (PTPN6): 0.66

Sequence: AGGTTTATCTTGAGAAGTTA
- remaining target (mRNA or protein) (fraction of control) (TERF1): ≥ 1

Sequence: AGTCTTCGCTGTCTGAGGAA
- remaining target (mRNA or protein) (fraction of control) (TERF1): 0.59

Sequence: ATATTAAATGAAGGTATCAG
- remaining target (mRNA or protein) (fraction of control) (TERF1): ≥ 1

Sequence: ATGTGGCCATGGTACCACCT
- remaining target (mRNA or protein) (fraction of control) (PTPN6): ≥ 1

Sequence: ATGTTCTCCAGCGAGTCC
- remaining target (mRNA or protein) (fraction of control) (RHOB): ≥ 1

Sequence: CAAAACTGTTAAAAGTCATC
- remaining target (mRNA or protein) (fraction of control) (XIAP): ≥ 1

Sequence: CAAACAAAATGCAGTGATCA
- remaining target (mRNA or protein) (fraction of control) (TERF1): 0.84

Sequence: CAAACTCTCAAACTCCTCCC
- remaining target (mRNA or protein) (fraction of control) (PTPN6): 0.88

Sequence: CAACTAAAACACTGCCATGT
- remaining target (mRNA or protein) (fraction of control) (XIAP): 0.54

Sequence: CACAGTCCCCAGTAGGTAAG
- remaining target (mRNA or protein) (fraction of control) (TERF1): 0.56

Sequence: CACTCCTCAAGTGAATGAGT
- remaining target (mRNA or protein) (fraction of control) (XIAP): 0.52

Sequence: CAGCAGTTGATGCAGCCG
- remaining target (mRNA or protein) (fraction of control) (RHOB): 0.69

Sequence: CAGCATCTCTCTGTAGGGAG
- remaining target (mRNA or protein) (fraction of control) (PTPN6): 0.81

Sequence: CATAGTTCTCGAAGACGG
- remaining target (mRNA or protein) (fraction of control) (RHOB): ≥ 1

Sequence: CATCCTCCGCCATGTTAAAT
- remaining target (mRNA or protein) (fraction of control) (TERF1): 0.73

Sequence: CATCTTCTCTTGAAAATAGG
- remaining target (mRNA or protein) (fraction of control) (XIAP): 0.9

Sequence: CCAAATCATCAGGGCTGATT
- remaining target (mRNA or protein) (fraction of control) (TERF1): ≥ 1

Sequence: CCACCACCAGCTTCTTGC
- remaining target (mRNA or protein) (fraction of control) (RHOB): ≥ 1

Sequence: CCACCCACGGGACAGCATCT
- remaining target (mRNA or protein) (fraction of control) (PTPN6): ≥ 1

Sequence: CCACCTGAGGACAGCACCGC
- remaining target (mRNA or protein) (fraction of control) (PTPN6): 0.84

Sequence: CCACGGGACAGCATCTCTCT
- remaining target (mRNA or protein) (fraction of control) (PTPN6): ≥ 1

Sequence: CCAGCTCTGTGCGGACAT
- remaining target (mRNA or protein) (fraction of control) (RHOB): 0.79

Sequence: CCAGGCACGATCACAAGGTT
- remaining target (mRNA or protein) (fraction of control) (XIAP): ≥ 1

Sequence: CCCTGACGGAGAGCGAGAAG
- remaining target (mRNA or protein) (fraction of control) (PTPN6): ≥ 1

Sequence: CCGTCCACCTCAATGTCG
- remaining target (mRNA or protein) (fraction of control) (RHOB): ≥ 1

Sequence: CCGTCGCCCACCACCACC
- remaining target (mRNA or protein) (fraction of control) (RHOB): ≥ 1

Sequence: CCTTACTGAACACGATCA
- remaining target (mRNA or protein) (fraction of control) (RHOB): ≥ 1

Sequence: CGAAGACCTCGCGCACGC
- remaining target (mRNA or protein) (fraction of control) (RHOB): ≥ 1

Sequence: CGACTCCTGGCCCTTCTGCG
- remaining target (mRNA or protein) (fraction of control) (PTPN6): 0.61

Sequence: CGAGGTAGTCGTAGGCTT
- remaining target (mRNA or protein) (fraction of control) (RHOB): 0.61

Sequence: CGCATTTGTTCCGGCCTTTC
- remaining target (mRNA or protein) (fraction of control) (PTPN6): 0.69

Sequence: CGCTCACTTCCTCTTGAGGG
- remaining target (mRNA or protein) (fraction of control) (PTPN6): 0.69

Sequence: CGGACATGCTCGTCGCTG
- remaining target (mRNA or protein) (fraction of control) (RHOB): ≥ 1

Sequence: CGGGCCAGCTCTGTGCGG
- remaining target (mRNA or protein) (fraction of control) (RHOB): 0.62

Sequence: CGTGAGGCTGTCGAAGGTCT
- remaining target (mRNA or protein) (fraction of control) (PTPN6): 0.9

Sequence: CGTGGCCGTCTCGAAGAC
- remaining target (mRNA or protein) (fraction of control) (RHOB): ≥ 1

Sequence: CTATCATTAAATACGCTTTC
- remaining target (mRNA or protein) (fraction of control) (XIAP): 0.99

Sequence: CTCGAAGACCTCGCGCAC
- remaining target (mRNA or protein) (fraction of control) (RHOB): ≥ 1

Sequence: CTCGGAGCGGCCGTCGCGGA
- remaining target (mRNA or protein) (fraction of control) (TERF1): 0.9

Sequence: CTCGGCCACCAGGCCCGCGT
- remaining target (mRNA or protein) (fraction of control) (TERF1): 0.82

Sequence: CTCGTCCTTACTGAACAC
- remaining target (mRNA or protein) (fraction of control) (RHOB): 0.99

Sequence: CTCTGTGCGGACATGCTC
- remaining target (mRNA or protein) (fraction of control) (RHOB): 0.61

Sequence: CTCTTGAGGGAACCCTTGCT
- remaining target (mRNA or protein) (fraction of control) (PTPN6): 0.49

Sequence: CTGAGGAAACATCCTCCGCC
- remaining target (mRNA or protein) (fraction of control) (TERF1): 0.68

Sequence: CTTTCTGAGAGATTATCAT
- remaining target (mRNA or protein) (fraction of control) (TERF1): 0.93

Sequence: GAAACCACCCACGGGACAGC
- remaining target (mRNA or protein) (fraction of control) (PTPN6): ≥ 1

Sequence: GAAACCCCGCCTCTACTAAA
- remaining target (mRNA or protein) (fraction of control) (TERF1): 0.74

Sequence: GAAATTCCTATCAGAACTCA
- remaining target (mRNA or protein) (fraction of control) (XIAP): 0.76

Sequence: GACAGCATCTCTCTGTAGGG
- remaining target (mRNA or protein) (fraction of control) (PTPN6): 0.78
